Measurements taken from US3954975A, “Salts of ACTH-peptides and processes for their manufacture” (Ciba-Geigy Corporation, priority 1972, dated 1976).
Counter-ions that a name gives are not always drawn. Square brackets hold non-standard residues; d marks the D form. Peptide text beside a SMILES is read from it.

Assay: solubility of the fatty acid salt in water
Assay type: physicochemical
Details: for solubility in water: 24°C
Procedure: 200 mg of D-Ser^1 -Lys^17,18 -β^1-18 -corticotropin-Lys^18 -amide hexaacetate hydrate are dissolved in 24 ml of ethanol and 1.6 ml of water, and thereafter a solution of 88 mg of lauric acid in 10 ml of ethanol is added. The mixture is evaporated to dryness, the residue is dried overnight in vacuo over sodium hydroxide and is then dissolved in 25 ml of tert. butanol and 5 ml of water whilst warming, the solution is filtered and the filtrate is lyophilized. The residue is again dried in vacuo over sodium hydroxide. 265 mg of lauric acid salt are obtained as a light powder. The solubility of the product in water at 24°C is less than 0.1% (acetic acid salt > 10%).

Row | Compound | solubility in water (in words) | further results
1 | CSCC[C@H](NC(=O)[C@H](CO)NC(=O)[C@H](Cc1ccc(O)cc1)NC(=O)[C@H](N)CO)C(=O)N[C@@H](CCC(=O)O)C(=O)N[C@@H](Cc1c[nH]cn1)C(=O)N[C@@H](Cc1ccccc1)C(=O)N[C@@H](CCCNC(=N)N)C(=O)N[C@@H](Cc1c[nH]c2ccccc12)C(=O)NCC(=O)N[C@@H](CCCCN)C(=O)N1CCC[C@H]1C(=O)N[C@H](C(=O)NCC(=O)N[C@@H](CCCCN)C(=O)N[C@@H](CCCCN)C(=O)N[C@@H](CCCCN)C(=O)N[C@@H](CCCCN)C(N)=O)C(C)C [Example 1, D-Ser^1 -Lys^17,18 -β^1-18-corticotropin-Lys^18-amide] | – | solubility in water: less than 0.1%
2 | CSCC[C@H](NC(=O)[C@H](CO)NC(=O)[C@H](Cc1ccc(O)cc1)NC(=O)[C@H](N)CO)C(=O)N[C@@H](CCC(=O)O)C(=O)N[C@@H](Cc1c[nH]cn1)C(=O)N[C@@H](Cc1ccccc1)C(=O)N[C@@H](CCCNC(=N)N)C(=O)N[C@@H](Cc1c[nH]c2ccccc12)C(=O)NCC(=O)N[C@@H](CCCCN)C(=O)N1CCC[C@H]1C(=O)N[C@H](C(=O)NCC(=O)N[C@@H](CCCCN)C(=O)N[C@@H](CCCCN)C(=O)N[C@@H](CCCCN)C(=O)N[C@@H](CCCCN)C(N)=O)C(C)C [Example 4, D-Ser^1 -Lys^17,18 -β^1-18-corticotropin-Lys^18-amide] | water-insoluble | –
3 | CSCC[C@H](NC(=O)[C@H](CO)NC(=O)[C@H](Cc1ccc(O)cc1)NC(=O)[C@H](N)CO)C(=O)N[C@@H](CCC(=O)O)C(=O)N[C@@H](Cc1c[nH]cn1)C(=O)N[C@@H](Cc1ccccc1)C(=O)N[C@@H](CCCNC(=N)N)C(=O)N[C@@H](Cc1c[nH]c2ccccc12)C(=O)NCC(=O)N[C@@H](CCCCN)C(=O)N1CCC[C@H]1C(=O)N[C@H](C(=O)NCC(=O)N[C@@H](CCCCN)C(=O)N[C@@H](CCCCN)C(=O)N[C@@H](CCCCN)C(=O)N[C@@H](CCCCN)C(N)=O)C(C)C [acetic acid salt, D-Ser^1 -Lys^17,18 -β^1-18-corticotropin-Lys^18-amide hexaacetate hydrate, reference compound] | – | solubility in water (hydrate): > 10%
4 | D-Ser^1 -Gly^3 -Lys^17,18 -corticotropin-Lys^18 -amide [Example 9] | cannot be dissolved in water | –

Now from value to compound, other results behind:

Row | solubility in water (in words) | Compound | further results
5 | sparingly soluble in water | CSCC[C@H](NC(=O)[C@H](CO)NC(=O)[C@H](Cc1ccc(O)cc1)NC(=O)[C@H](N)CO)C(=O)N[C@@H](CCC(=O)O)C(=O)N[C@@H](Cc1c[nH]cn1)C(=O)N[C@@H](Cc1ccccc1)C(=O)N[C@@H](CCCNC(=N)N)C(=O)N[C@@H](Cc1c[nH]c2ccccc12)C(=O)NCC(=O)N[C@@H](CCCCN)C(=O)N1CCC[C@H]1C(=O)N[C@H](C(=O)NCC(=O)N[C@@H](CCCCN)C(=O)N[C@@H](CCCCN)C(=O)N[C@@H](CCCCN)C(=O)N[C@@H](CCCCN)C(=O)N1CCC[C@H]1C(=O)O)C(C)C [Example 6, D-Ser^1 -Lys^17,18 -β^1-19-corticotropin] | –
6 | practically insoluble in water | CSCC[C@H](NC(=O)CNC(=O)[C@H](Cc1ccc(O)cc1)NC(=O)[C@H](N)CO)C(=O)N[C@@H](CCC(=O)O)C(=O)N[C@@H](Cc1c[nH]cn1)C(=O)N[C@@H](Cc1ccccc1)C(=O)N[C@@H](CCCNC(=N)N)C(=O)N[C@@H](Cc1c[nH]c2ccccc12)C(=O)NCC(=O)N[C@@H](CCCCN)C(=O)N1CCC[C@H]1C(=O)N[C@H](C(=O)NCC(=O)N[C@@H](CCCCN)C(=O)N[C@@H](CCCCN)C(=O)N[C@@H](CCCCN)C(=O)N[C@@H](CCCCN)C(N)=O)C(C)C [Example 8, D-Ser^1 -Gly^3 -Lys^17,18 -β^1-18-corticotropin-Lys^18-amide] (H-[dS]YGMEHFRWGKPVGKKKK-NH2) | –
